We go through four molecules from patent US20070191426A1, “Derivatives of 3-aminocarbonylquinoline, pharmaceutical compositions containing them and processes and intermediates for their preparation” (priority 2003, published 2007).

Some results are limits rather than exact numbers.

For experiment [1], the target named is T1, PDE4B (human recombinant) (Homo sapiens, UniProt Q07343).
T1 construct: made in house
In words: Inhibition of PDE4B activity: radioactive Scintillation Proximity Assay (SPA). Format: biochemical. Particulars: SPA assay (Examples 1 to 6); read-out: PDE4B mean pIC50 (converted). The source says: Human recombinant PDE4B, in particular the 2B splice variant thereof (HSPDE4B2B), is disclosed in WO 94/20079 and also in M. M. McLaughlin et al., “A low Km, rolipram-sensitive, cAMP-specific phosphodiesterase from human brain: cloning and expression of cDNA, biochemical characterization of recombinant protein, and tissue distribution of mRNA”, J. Biol. Chem., 1993, 268, 6470-6476. For example, in Example 1 of WO 94/20079, human recombinant PDE4B is described as being expressed in the PDE-deficient yeast Saccharomyces cerevisiae strain GL62, e.g. after induction by addition of 150 uM CuSO4, and 100,000×g supernatant fractions of yeast cell lysates are described for use in the harvesting of PDE4B enzyme.
(§1) Inhibition of PDE3, PDE4B, PDE4D, PDE5 or PDE6 Activity: Radioactive Scintillation Proximity Assay (SPA)
(§2) The ability of compounds to inhibit catalytic activity at PDE4B or 4D (human recombinant), PDE3 (from bovine aorta) PDE5 (human recombinant) or PDE 6 (from bovine retina) was may be determined by Scintillation Proximity Assay (SPA) in 96-well format. Test compounds (preferably as a solution in DMSO, e.g. 2 microlitre (μl) volume) were preincubated at ambient temperature in Wallac Isoplates (code 1450-514) with PDE enzyme in 50 mM Tris-HCl buffer pH 7.5, 8.3 mM MgCl2, 1.7 mM EGTA, 0.05% (w/v) bovine serum albumin for 10-30 minutes. The enzyme concentration was adjusted so that control rates are linear over the assay incubation period. For the PDE3, PDE4B and PDE4D assays […] 3′,5′-cyclic phosphate (Amersham Pharmacia Biotech, code TRK.559 or Amersham Biosciences UK Ltd, Pollards Wood, Chalfont St Giles, Buckinghamshire HP8 4SP, UK) was added to give 0.05 μCi per well and ˜10 nM final concentration. For the PDE5 and PDE6 assays [8-^3H]guanosine 3′,5′-cyclic phosphate (Amersham Pharmacia Biotech , code TRK.392) was added to give 0.05 μCi per well and ˜36 nM final concentration. Plates e.g. containing approx. 100 μl volume of assay mixture were mixed on an orbital shaker for 5 minutes and incubated at ambient temperature for 1 hour. Phosphodiesterase SPA beads (Amersham Pharmacia Biotech, code RPNQ 0150) were added (˜1 mg per well) to terminate the assay. Plates were sealed and shaken and allowed to stand at ambient temperature for 35 minutes to 1 hour to allow the beads to settle. Bound radioactive product was measured using a WALLAC TRILUX 1450 MicroBeta scintillation counter. […] Curves were analyzed using ActivityBase and XLfit (ID Business Solutions Limited, 2 Ocean Court, Surrey Research Park, Guildford, Surrey GU2 7QB, United Kindgom). Results were expressed as pIC50 values.

The target in experiment [2] is PDE5 (human recombinant) (Homo sapiens, UniProt O76074). As to the kind of experiment: Inhibition of PDE5 activity: radioactive Scintillation Proximity Assay (SPA). In kind it is biochemical. To be noted: SPA assay (all Examples); read-out: PDE5 mean pIC50 (converted).
Description: Human recombinant PDE5 is disclosed in K. Loughney et al., “Isolation and characterization of cDNAs encoding PDE5A, a human cGMP-binding, cGMP-specific 3′,5′-cyclic nucleotide phosphodiesterase”, Gene, 1998, 216, 139-147.
as §1, §2

T1 sequence (Q07343 1-564 isoform Q07343-2): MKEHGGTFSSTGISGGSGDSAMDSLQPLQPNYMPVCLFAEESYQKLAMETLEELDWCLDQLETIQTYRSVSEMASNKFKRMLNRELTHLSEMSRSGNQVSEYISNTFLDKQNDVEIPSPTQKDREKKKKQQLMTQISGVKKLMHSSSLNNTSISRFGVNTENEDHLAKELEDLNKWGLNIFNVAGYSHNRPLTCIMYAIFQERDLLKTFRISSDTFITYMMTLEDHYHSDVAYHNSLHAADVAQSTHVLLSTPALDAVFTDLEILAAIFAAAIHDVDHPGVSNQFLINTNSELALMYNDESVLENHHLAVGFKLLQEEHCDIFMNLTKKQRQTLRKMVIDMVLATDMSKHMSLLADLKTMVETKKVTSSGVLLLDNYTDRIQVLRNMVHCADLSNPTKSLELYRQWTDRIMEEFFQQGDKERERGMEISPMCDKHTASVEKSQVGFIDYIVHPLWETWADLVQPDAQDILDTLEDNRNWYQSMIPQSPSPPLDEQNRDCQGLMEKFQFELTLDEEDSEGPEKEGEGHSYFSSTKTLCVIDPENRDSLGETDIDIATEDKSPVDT

Take `COc1cccc(Nc2c(C(N)=O)cnc3ccc(C(=O)N4CCOCC4)cc23)c1` [Example 1, 4-{[3-(Methyloxy)phenyl]amino}-6-(4-morpholinylcarbonyl)-3-quinolinecarboxamide]: the values for the IC50 in experiment [1] and in experiment [2] were 10 nM and greater than 31.6 µM, respectively.

As to `COc1cccc(Nc2c(C(N)=O)cnc3ccc(C(=O)Nc4ccccc4)cc23)c1` [Example 2, 4-{[3-(methyloxy)phenyl]amino}-N^6-phenyl-3,6-quinolinedicarboxamide], the IC50 in experiment [1] was 25.1 nM; in experiment [2], greater than 31.6 µM.

Consider `COc1cccc(Nc2c(C(N)=O)cnc3ccc(C(=O)NC(C)(C)C)cc23)c1` [Example 3], for which the IC50 in experiment [1] was 39.8 nM; in experiment [2], greater than 31.6 µM.

`CNC(=O)c1ccc2ncc(C(N)=O)c(Nc3cccc(OC)c3)c2c1` [Example 6]: the IC50 in experiment [1] is 501 nM; in experiment [2], greater than 31.6 µM.
